Patent EP1321467A2, “High affinity inhibitors for target validation and uses thereof” (Princeton University, priority 1999, dated 2000)
“Also recorded” adds a separate entry of the source. Where two headings read alike, the source gives them in different places.

Experiments:
[1] = test system: wild-type protein tyrosine kinase; test: Screening of nucleotide analogs in murine lymphocyte lysate, anti-phosphotyrosine immunoblot; assay type: biochemical; conditions: 100 uM nucleotide triphosphate, 37°C, 5 min
I338G v-Src [2] = target: T1, I338G v-Src (Rous sarcoma virus subgroup A, UniProt P00524, DEL77-225/I338G); test: biochemical; assay type: biochemical
T1 construct: catalytic domain of the target kinase, I338G v-Src, which was expressed in bacteria and purified as a glutathione-S-transferase (GST) fusion protein; made in house; host or cells: E. coli DH5a, pGEX-KT

I338G v-Src [3] = test: biochemical; assay type: biochemical; conditions: for increase in affinity over previously optimized inhibitors of wild type kinases: versus PP1 on Fyn
WT v-Src = target: T2, WT v-Src (Rous sarcoma virus subgroup A, UniProt P00524, DEL77-225); test: biochemical; assay type: biochemical; design: in vitro inhibition of WT v-Src / inhibition of WT v-Src: dose or concentration left out as unconfirmed
T2 construct: glutathione-S-transferase fusion proteins of wild type v-Src catalytic domain, I338G v-Src SH1, and WT Fyn into the pGEX-KT plasmid; GST (N); made in house; host or cells: E. coli DH5a, pGEX-KT

WT Fyn = target: T3, WT Fyn (Homo sapiens, UniProt P06241); test: In vitro kinase inhibition assay; assay type: biochemical; design: in vitro inhibition of Fyn: dose or concentration left out as unconfirmed; conditions: for IC50: Table 3
T3 construct: GST (N); made in house; host or cells: E. coli DH5a, pGEX-KT
T3 sequence (P06241 1-534 isoform P06241-2): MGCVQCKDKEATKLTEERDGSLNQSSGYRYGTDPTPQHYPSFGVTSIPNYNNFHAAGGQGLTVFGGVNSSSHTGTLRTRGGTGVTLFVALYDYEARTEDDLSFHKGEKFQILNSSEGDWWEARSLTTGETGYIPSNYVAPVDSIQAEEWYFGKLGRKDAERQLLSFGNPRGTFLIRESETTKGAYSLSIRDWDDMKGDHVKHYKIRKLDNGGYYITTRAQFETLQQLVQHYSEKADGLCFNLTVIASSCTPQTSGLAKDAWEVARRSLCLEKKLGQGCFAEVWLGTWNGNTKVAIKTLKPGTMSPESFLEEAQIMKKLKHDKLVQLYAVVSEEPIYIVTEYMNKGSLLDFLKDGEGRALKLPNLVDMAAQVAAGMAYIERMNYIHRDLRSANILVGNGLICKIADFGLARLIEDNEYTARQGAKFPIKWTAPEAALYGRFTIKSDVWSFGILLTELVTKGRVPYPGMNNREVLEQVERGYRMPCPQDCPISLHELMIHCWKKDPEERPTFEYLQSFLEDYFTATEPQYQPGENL

PKCd = target: T4, PKCd (Homo sapiens, UniProt Q05655); test: In vitro kinase inhibition assay; assay type: biochemical; conditions: concentrations up to 300 mM
T4 construct: 6-His; made in house
T4 sequence (Q05655 whole entry, species assumed): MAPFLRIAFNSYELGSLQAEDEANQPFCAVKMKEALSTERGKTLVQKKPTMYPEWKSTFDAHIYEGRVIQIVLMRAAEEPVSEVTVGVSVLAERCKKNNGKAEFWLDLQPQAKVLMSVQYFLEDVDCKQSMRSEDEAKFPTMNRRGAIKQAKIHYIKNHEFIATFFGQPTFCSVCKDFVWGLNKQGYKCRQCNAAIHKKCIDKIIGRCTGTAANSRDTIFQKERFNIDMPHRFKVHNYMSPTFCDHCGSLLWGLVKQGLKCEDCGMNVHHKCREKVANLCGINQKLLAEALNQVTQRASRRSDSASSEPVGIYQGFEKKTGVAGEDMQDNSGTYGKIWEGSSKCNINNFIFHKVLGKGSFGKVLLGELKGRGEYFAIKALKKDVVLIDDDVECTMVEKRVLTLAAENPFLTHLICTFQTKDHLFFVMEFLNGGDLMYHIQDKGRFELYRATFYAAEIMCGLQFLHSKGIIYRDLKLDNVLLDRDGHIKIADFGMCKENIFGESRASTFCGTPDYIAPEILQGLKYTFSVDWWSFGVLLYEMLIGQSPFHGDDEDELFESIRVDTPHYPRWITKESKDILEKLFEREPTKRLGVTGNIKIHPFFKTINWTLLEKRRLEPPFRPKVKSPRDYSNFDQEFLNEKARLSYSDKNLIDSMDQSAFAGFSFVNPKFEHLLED

PKA = target: T5, PKA (Homo sapiens, UniProt P17612); test: In vitro kinase inhibition assay; assay type: biochemical; conditions: concentrations up to 300 mM
T5 construct: purchased Pierce
From the text: (§1) PKA was purchased (Pierce) and used without further purification.

T339G Fyn = target: T6, T339G Fyn (Homo sapiens, UniProt P06241, T342G); test: In vitro kinase inhibition assay; assay type: biochemical
T6 construct: GST (N); made in house; host or cells: E. coli DH5a, pGEX-KT
T6 sequence (P06241 1-534 isoform P06241-2 T339G): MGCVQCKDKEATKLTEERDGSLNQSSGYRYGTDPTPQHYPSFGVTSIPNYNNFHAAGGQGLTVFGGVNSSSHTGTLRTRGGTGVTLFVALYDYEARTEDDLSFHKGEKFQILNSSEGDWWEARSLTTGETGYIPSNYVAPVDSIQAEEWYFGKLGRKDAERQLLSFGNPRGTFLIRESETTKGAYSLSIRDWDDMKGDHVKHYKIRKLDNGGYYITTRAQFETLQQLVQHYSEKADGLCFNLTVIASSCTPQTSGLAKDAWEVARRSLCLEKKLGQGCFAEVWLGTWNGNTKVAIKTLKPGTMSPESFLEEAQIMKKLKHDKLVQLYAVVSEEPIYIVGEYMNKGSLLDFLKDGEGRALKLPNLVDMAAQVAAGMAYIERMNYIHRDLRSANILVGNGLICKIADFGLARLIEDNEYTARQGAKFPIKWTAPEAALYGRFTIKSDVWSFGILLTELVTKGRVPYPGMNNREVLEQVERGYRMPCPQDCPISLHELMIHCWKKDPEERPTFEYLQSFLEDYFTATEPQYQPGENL
From the text: as §1

[4] = test system: B cell receptor (BCR) mediated phosphorylation cascade; test: Murine B cell assay, phosphotyrosine blot; assay type: cell-based; design: dose or concentration left out as unconfirmed; conditions: 30 minutes, anti-IgM stimulation
Experimental: Murine B Cell Assay: Splenic lymphocytes were isolated from 6-20 week old Balb/c or C57/B6 mice. The cells were washed out of the spleen into RPMI media containing 1 mg/mL DNase in and the red blood cells were lysed in 17 mM tris-ammonium chloride, pH 7.2, Approximately 4x10^6 cells were incubated at 37°C for 30 minutes with […] of 3g or 2 in 1.1% DMSO. B cell stimulation was initiated by the addition of 2 mg of goat anti-mouse IgM (Jackson Immuno Research, cat# 115-005-075) and subsequent incubation for 5 minutes at 37(C. The cells were isolated by centrifugation (13,000 rpm, 2 min) and lysed (lysis buffer: 1% Triton X-100, 50 mM tris pH 7.4, 2 mM EDTA, 150 mM NaCl, […] PMSF, 2 mM sodium orthovanadate, 10 mg/mL leupeptin, 10 mg/mL apoprotin). The cellular debris was then pelleted at 13,000 rpm for 15 min. Cellular proteins were separated by 10% polyacrylamide gel electrophoresis and transferred to a nitrocellulose membrane by Western blotting. Phosphotyrosine containing proteins were visualized by immunoblotting with anti-phosphotyrosine antibody (Upstate Biotechnology, Inc.).

[5] = test system: I338G v-Src transformed NIH3T3 cells; test: Inhibition of v-Src in NIH3T3 fibroblasts, phosphotyrosine blot; assay type: cell-based, murine
[6] = test system: WT v-Src transformed NIH3T3 cells; test: as above; assay type: cell-based, murine
[7] = test system: I338G v-Src transformed NIH3T3 fibroblasts; test: Microscopy of cell morphology and polymerized actin; assay type: cell-based, murine
[8] = test system: WT v-Src transformed NIH3T3 fibroblasts; test: as above; assay type: cell-based, murine; conditions: 250 nM 6a, 16 hours
Jurkat cells = test: Tyrosine phosphorylation in pervanadate treated Jurkat cells; assay type: cell-based, human; conditions: 500nM 6a, 30 min, then 0.5 mM pervanadate
F80G CDK2 = target: T7, F80G CDK2 (Homo sapiens, UniProt P24941, F80G); test: In vitro inhibition of phosphorylation of an exogenous substrate, kinase panel; assay type: biochemical
T7 construct: made in house

F89G CAMK IIα = target: T8, F89G CAMK IIα (Homo sapiens, UniProt Q9UQM7, F89G); test: as above; assay type: biochemical
T8 construct: made in house
T8 sequence (Q9UQM7 whole entry F89G): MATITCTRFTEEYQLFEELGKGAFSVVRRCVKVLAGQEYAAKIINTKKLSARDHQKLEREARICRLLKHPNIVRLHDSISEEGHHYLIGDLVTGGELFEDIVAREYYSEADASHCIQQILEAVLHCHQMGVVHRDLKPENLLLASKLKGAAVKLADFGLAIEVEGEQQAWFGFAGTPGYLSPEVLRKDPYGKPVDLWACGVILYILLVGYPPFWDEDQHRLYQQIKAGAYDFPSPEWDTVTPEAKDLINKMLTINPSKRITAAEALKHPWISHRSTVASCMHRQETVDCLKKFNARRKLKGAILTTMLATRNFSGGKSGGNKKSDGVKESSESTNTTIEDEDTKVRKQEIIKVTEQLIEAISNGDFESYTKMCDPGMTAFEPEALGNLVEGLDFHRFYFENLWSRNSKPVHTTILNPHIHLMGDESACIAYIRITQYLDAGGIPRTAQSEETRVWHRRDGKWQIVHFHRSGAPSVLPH

glycine mutants = test: In vitro inhibition, all glycine mutant kinases of the panel; assay type: biochemical; conditions: read-out: IC 50's for all of the glycine mutants
[9] = test system: panel of wild-type protein kinases; test: In vitro inhibition, panel of wild-type protein kinases; assay type: biochemical
Cdc28·MBP-C1b2 = target: T9, Cdc28·MBP-C1b2 (Saccharomyces cerevisiae, UniProt P00546); test: 1-NM-PP1 IC50, Histone H1 phosphorylation; assay type: biochemical; conditions: text b289; read-out: IC50
T9 construct: His6 (C); made in house; host or cells: Sf9 insect cells, baculovirus, co-infected with Cak1-HA3 (Cdc28-His6); bacteria (MBP-Clb2)
T9 sequence (P00546 whole entry): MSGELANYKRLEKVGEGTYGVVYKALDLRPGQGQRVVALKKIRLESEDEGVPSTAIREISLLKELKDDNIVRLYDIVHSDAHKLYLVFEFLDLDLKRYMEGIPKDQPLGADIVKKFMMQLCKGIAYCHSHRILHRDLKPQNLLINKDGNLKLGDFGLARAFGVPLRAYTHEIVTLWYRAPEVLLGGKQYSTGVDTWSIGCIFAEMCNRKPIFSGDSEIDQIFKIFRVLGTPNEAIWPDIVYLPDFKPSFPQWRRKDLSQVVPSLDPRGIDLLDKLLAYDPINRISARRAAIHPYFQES
T9 sequence (P24869 whole entry partner): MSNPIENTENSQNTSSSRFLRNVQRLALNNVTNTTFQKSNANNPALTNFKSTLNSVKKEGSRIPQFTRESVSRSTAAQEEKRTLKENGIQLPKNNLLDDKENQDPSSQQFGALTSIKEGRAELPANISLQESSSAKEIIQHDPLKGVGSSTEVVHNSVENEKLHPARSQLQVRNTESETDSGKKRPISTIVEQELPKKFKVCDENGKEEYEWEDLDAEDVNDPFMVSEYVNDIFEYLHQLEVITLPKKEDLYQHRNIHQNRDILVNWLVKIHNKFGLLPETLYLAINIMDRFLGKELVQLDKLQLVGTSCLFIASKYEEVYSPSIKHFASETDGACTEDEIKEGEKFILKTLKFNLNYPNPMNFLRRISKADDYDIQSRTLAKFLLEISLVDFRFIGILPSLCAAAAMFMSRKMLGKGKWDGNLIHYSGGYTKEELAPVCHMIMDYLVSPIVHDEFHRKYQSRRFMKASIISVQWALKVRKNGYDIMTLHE
Experimental: (§2) Purification of Cdc28-His6, Cdc28-as1-His6, MBP-Clb2: Lysate was prepared from insect cells co-infected with baculoviruses encoding Cdc28-His6 or Cdc28-as1-His6 and Cak1-HA3 (151). Cdc28-His6 and Cdc28-as1-His6 were purified by metal affinity chromatography as described (152), followed by […]. MBP-Clb2 was purified from lysates of bacteria expressing MBP-Clb2 (a gift of R. Deshaies) on an amylose column (NEBL), followed by anion-exchange chromatography (Pharmacia Q Sepharose Fast Flow).
(§3) Phosphate incorporation was determined at each inhibitor concentration by scintillation counting.

cdc28-as1 strain = test: Yeast growth; assay type: cell-based, Saccharomyces cerevisiae; conditions: concentrations without effect on wild-type strains
wild-type cells = test: Yeast growth; assay type: cell-based, Saccharomyces cerevisiae; conditions: concentrations that ablate Cdc28-as1 growth
fus3-as1 strain = test: Yeast mating assay for Fus3 function; assay type: cell-based, Saccharomyces cerevisiae; conditions: 50 µM
[10] = test system: wild-type Fus3 expressing cells; test: Yeast mating assay for Fus3 function; assay type: cell-based, Saccharomyces cerevisiae; conditions: all concentrations up to 50 µM
[11] = test system: S. cerevisiae expressing either wild-type Fus3, Fus3-asl, or no Fus3; test: Non-selective cytotoxicity control, plating of mating cultures on YPD; conditions: any of the three strains
Cdc28-as1·MBP-C1b2 = Cdc28-as1·MBP-C1b2 (Saccharomyces cerevisiae, UniProt P00546, F88G); test: 1-NM-PP1 IC50, Histone H1 phosphorylation; assay type: biochemical; design: His6 (C); made in house; host or cells: Sf9 insect cells, baculovirus, co-infected with Cak1-HA3 (Cdc28-as1-His6); bacteria (MBP-Clb2); conditions: IC50, text b289
Sequence of Cdc28-as1·MBP-C1b2 (P00546 whole entry F88G): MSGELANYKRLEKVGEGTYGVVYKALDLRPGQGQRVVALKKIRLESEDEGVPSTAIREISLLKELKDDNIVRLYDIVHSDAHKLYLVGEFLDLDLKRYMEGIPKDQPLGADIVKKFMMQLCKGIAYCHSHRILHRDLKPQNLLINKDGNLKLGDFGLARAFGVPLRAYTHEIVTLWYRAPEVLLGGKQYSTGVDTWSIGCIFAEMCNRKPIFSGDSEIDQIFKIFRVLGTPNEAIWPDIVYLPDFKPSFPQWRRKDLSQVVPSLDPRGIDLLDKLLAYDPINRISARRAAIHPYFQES
Sequence of Cdc28-as1·MBP-C1b2 (P24869 whole entry, further chain): as the sequence (P24869 whole entry partner) above
Experimental: as §2, §3

CC(C)(C)n1nc(-c2ccccc2)c2c(N)ncnc21 [Compound 1]
level of protein tyrosine phosphorylation [1]: some ability to serve as cellular protein tyrosine kinase substrates

CC(C)(C)n1nc(COc2cccc3ccccc23)c2c(N)ncnc21 [Compound 6i, 4-amino-1(tert-butyl)-3-(1'-naphthoxymethyl)pyrazolo[3,4-d]pyrimidine]
IC50 (I338G v-Src [2]; Table 3, read-out: 1338G v-Src): 45 nM | selectivity for I338G v-Src with respect to wild type v-Src (I338G v-Src [3]; in vitro): > 6500 fold | IC50 (WT v-Src; Table 3, read-out: vSrc): > 300000 nM | IC50 (WT Fyn): > 300000 nM

CC(C)(C)n1nc(-c2ccc3ccccc3c2)c2c(N)ncnc21 [Compound 6b, 4-amino-1-(tert-butyl)-3-(2'-naphthyl)pyrazolo[3,4-d]pyrimidine]
increase in affinity over previously optimized inhibitors of wild type kinases (I338G v-Src [3]): 20 fold

CC(C)(C)n1nc(-c2cccc(OCc3ccccc3)c2)c2c(N)ncnc21 [Compound 6d, 4-amino-1-(tert-butyl)-3-(m-benzyloxyphenyl)pyrazolo[3,4-d]pyrimidine]
selectivity for I338G v-Src with respect to wild type Fyn (I338G v-Src [3]; in vitro): > 100 fold

CC(C)(C)c1ccc(-c2nn(C(C)(C)C)c3ncnc(N)c23)cc1 [Compound 6g, 4-amino-1-(tert-butyl)-3-(p-tert-butylphenyl)pyrazolo[3,4 d]pyrimidine]
IC50 (I338G v-Src [2]; Table 3, read-out: 1338G v-Src): 99 nM | IC50 (WT v-Src; Table 3, read-out: vSrc): 65000 nM

CC(C)(C)c1ccc(C(=O)Nc2ncnc3c2c(-c2ccccc2)nn3C(C)(C)C)cc1 [Compound 3g, 4-(p-tert-butyl)benzamido-1-tert-butyl-3-phenylpyrazolo[3,4-d]pyrimidine]
IC50 (I338G v-Src [2]; read-out: IC50): 430 nM | IC50 (I338G v-Src [2]; text b249, read-out: IC50): 430 nM | inhibits the engineered v-Src more effectively than WT Fyn (I338G v-Src [3]; in vitro): over 700 times | selectivity for I338G v-Src with respect to wild type v-Src (I338G v-Src [3]; in vitro): ≥ 1000 fold | inhibition of WT v-Src (WT v-Src; limit of solubility): no inhibition | inhibition of PKCd (PKCd): not detectably inhibited | inhibition of PKA (PKA): not detectably inhibited | selectivity for T339G Fyn over WT Fyn (T339G Fyn): greater than 300 fold | phosphotyrosine pattern of B cell stimulation [4]: no effect on the phosphotyrosine pattern of B cell stimulation | cellular IC50 relative to the in vitro value [5]: roughly 100 times | tyrosine phosphorylation ([5]; 3g, 12 hours): dramatic diminution in the tyrosine phosphorylation of the putative v-Src substrate, p36; also recorded: blocks p36 phosphorylation in I338G v-Src | IC50 ([5]; Mus musculus, NIH3T3, read-out: IC50 for p36 phosphotyrosine signal): ~50000 nM | tyrosine phosphorylation ([6]; 3g, 12 hours): no loss of tyrosine phosphorylation | cell morphology and polymerized actin ([7]; 3g, 48 hours): dramatic changes in cell morphology which are consistent with the reversal of transformation; also recorded: defined polymerized actin strings, strongly resembling the actin formations of non-transformed NIH3T3 fibroblasts; also recorded: selectively acquire a flattened morphology and selectively regain Actin stress fibers

CC(C)(C)n1nc(Cc2ccc3c(c2)OCO3)c2c(N)ncnc21 [Compound 6f, 4-amino-1-(tert-butyl)-3-piperonylpyrazolo[3,4-d]pyrimidine]
selectivity for I338G v-Src with respect to wild type v-Src (I338G v-Src [3]; in vitro): ~120 fold

CC(C)(C)n1nc(-c2cccc(OCc3c(Cl)cccc3Cl)c2)c2c(N)ncnc21 [Compound 6e, 4-amino-1-(tert-butyl)-3-(m-(2',6'-dichloro)benzyloxyphenyl) pyrazolo[3,4-d]pyrimidine]
IC50 (I338G v-Src [2]; Table 3, read-out: 1338G v-Src): 130 nM | IC50 (WT v-Src; Table 3, read-out: vSrc): 300000 nM

CC(C)(C)n1nc(-c2cccc3ccccc23)c2c(N)ncnc21 [4-amino-1-(tert-butyl)-3-(1'-naphthyl)pyrazolo[3,4-d]pyrimidine]
IC50 (I338G v-Src [2]): 1.5 nM | increase in affinity over previously optimized inhibitors of wild type kinases (I338G v-Src [3]): 20 fold | IC50 (WT v-Src): 1000 nM | tyrosine phosphorylation ([5]; varying concentrations of 6a, 30 min): strongly diminishes tyrosine phosphorylation in a concentration dependent manner within minutes | phosphotyrosine signal ([6]; 500nM 6a): no loss of phosphotyrosine signal | actin fibers and morphology ([7]; 250 nM 6a, 16 hours): clear actin fibers and appear indistinguishable from normal NIH3T3 fibroblasts; also recorded: selectively acquire a flattened morphology and selectively regain actin stress | actin fibers and morphology [8]: indistinguishable from untreated wild type cells; also recorded: no effect on this non-mutant cell line | tyrosine phosphorylation (Jurkat cells): no detectable decrease in phosphorylation

CC(C)(C)n1nc(Cc2cccc3ccccc23)c2c(N)ncnc21 [Compound 11]
IC50 (F80G CDK2): 5 nM | IC50 (F89G CAMK IIα): 8 nM | IC50 (glycine mutants): < 10 nM | concentration below which none of the wild-type kinases tested are inhibited [9]: ≥ 1 µM | IC50 (Cdc28·MBP-C1b2): > 50000 nM | growth of yeast which express Cdc28-as1 (cdc28-as1 strain): completely ablated | growth of wild-type strains (wild-type cells): no effect on the growth of wild-type strains | decrease in mating (fus3-as1 strain): 85 fold | diploid colonies [10]: 0.6-1.1 x 10^5 cfu/ml | cfu/mL on YPD plates [11]: No significant decrease in cfu/mL on YPD plates | IC50 (Cdc28-as1·MBP-C1b2): 3.9 nM

CC(C)(C)n1nc(-c2ccccc2)c2c(N)ncnc21 [2 (Figure 14), 4-Amino-1-tert-butyl-3-phenylpyrazolo [3,4-d] pyrimidine]
IC50 (I338G v-Src [2]): 430 nM | phosphotyrosine pattern of B cell stimulation [4]: significant reduction in tyrosine phosphorylation

CC(C)(C)n1nc(Cc2ccc3ccccc3c2)c2c(N)ncnc21 [Compound 6j, 4-amino-1-(tert-butyl)-3-(2'-naphthylmethyl)pyrazolo[3,4-d]pyrimidine]
IC50 (I338G v-Src [2]; Table 3, read-out: 1338G v-Src): 20 nM | IC50 (WT v-Src; Table 3, read-out: vSrc): > 300000 nM | IC50 (WT Fyn): > 300000 nM

OC[C@H]1O[C@@H](n2cnc3c(NOC4CCCC4)ncnc32)[C@H](O)[C@@H]1O [N-6 cyclopentyloxyadenosine]
in vitro inhibition of WT v-Src (WT v-Src): no detectable in vitro inhibition | in vitro inhibition of Fyn (WT Fyn): no detectable in vitro inhibition
